≈ marks a conversion by molar mass, not a printed value.
Columns and labels:
[1] = Mouse plasma PK after oral gavage; type: in vivo; details: female, CD1, mouse, mice, 10 mg/kg PO
Method: For PK analysis of pyrrolopyrimidine analogs in mouse, rat, and dog plasma, the oral formulation was prepared as a solution containing 20% (w/v) Captisol in 25 mM NaH2PO4 buffer (pH 2). Compounds were administered orally by gavage at 10 mg/kg to female CD1 mice. After dosing, plasma samples were collected to characterize the PK profiles at 0.25, 0.5, 1, 2, 4, 8, 12 and 24 h post-dose. The plasma concentration of compound was determined by protein precipitation with acetonitrile and liquid chromatography with mass spectrometric detection (LC-MS/MS). Parameters were estimated using Phoenix (WinNonlin) pharmacokinetic software version 6.1.0 using a non-compartmental approach consistent with the oral route of administration. PK analysis of 26 in plasma and pancreas followed a similar analytical method as above, with minor modifications. Compound 26 was suspended in a vehicle consisting of 0.5% methylcellulose (400 cP) and 0.1% Tween80 in water and administered to BALB/c nude mice by oral gavage at 0.3, 1, 3, 10, 30 mg/kg. Plasma and pancreas were sampled from 5 mice per group following a single oral administration at 1, 4, 8, 12, 24 h post-dose.

[2] = Metabolic clearance in hepatocytes, human; type: in vitro ADME; details: male, pooled cryopreserved human hepatocytes (ten donors), read-out: Hepatocyte Clearance (t1/2 min) Human
Method: Metabolic Clearance in Hepatocytes
Testosterone was obtained from Cerilliant (Round Rock, TX). 7-Hydroxycoumarin was obtained from Sigma-Aldrich (St.
Louis, MO). Ten-donor male pooled cryopreserved human hepatocytes, cryopreserved male Sprague Dawley rat hepatocytes, cryopreserved male ICR/CD-1 mouse hepatocytes, cryopreserved male beagle dog hepatocytes, In VitroGro HI Medium (Incubation), and InVitroGro HT Medium (Thawing) were obtained from Bioreclamation IVT (Baltimore, MD). All solvents were obtained from commercial sources and used without further purification.Test compound was prepared as a 1 mM stock solution in DMSO. A 2 µM solution of test compound and testosterone was prepared (7 - hydroxycoumarin was prepared at 20 µM) in In VitroGro HI Medium (Incubation). These solutions were placed in a sterile incubator set to maintain 37°C, 5% CO2, and 98% humidity to pre-warm. Cryopreserved hepatocytes were prepared at a concentration of 2 x 10^6 living cells/mL in incubation media and placed in the incubator to pre-warn. The compound solutions and hepatocyte mixtures were then combined at a ratio of 1:1 (v:v). The final volume of the reaction mixture was 750 µL, containing 1 µM test compound and 1 x 10^6 cells/mL. The reaction mixture was placed in the incubator on a plate shaker. After 0, 15, 30, 60, 90, and 120 minutes of incubation, 100 µL of reaction mixtures were removed from the incubation plate and mixed with 150 µL of ice-cold acetonitrile in a designated well of a 96-well crash plate. The 96-well crash plate was placed on ice for 15 min, and samples were centrifuged (3,600 rpm, 10 min, 4 °C) to precipitate protein.
The supernatants were diluted 1:1 (v/v) with water containing tolbutamide, (internal standard for positive and negative modes, respectively) in a 96-well shallow injection plate. This plate was sealed for LC-MS analysis. All measurements

[3] = Plasma protein binding (RED dialysis), mouse; type: in vitro ADME; details: male, CD-1 (ICR), pH 7.4
Text: Verapamil hydrochloride and tamoxifen were obtained from Sigma-Aldrich. […]
Pooled mixed gender human donor plasma, Sprague Dawley male rat plasma, CD-1 (ICR) male mouse plasma and male beagle dog plasma were obtained from Bioreclamation Inc. (Westbury, NY). Reusable Teflon base plate, RED Device inserts, and BupH Phosphate Buffered Saline packs (0.1 M sodium phosphate and 0.15 M sodium chloride when dissolved in 0.5 L water) were obtained from Thermo Scientific (Waltham, MA). Propranolol was obtained from Sigma-Aldrich (St. Louis, MO). All solvents were obtained from commercial sources and used without further purification.
Frozen plasma was thawed and the pH of plasma and BupH phosphate buffered saline was adjusted to 7.4 prior to dialysis. Into each well of a reusable Teflon 48-well base plate a RED insert was placed open end up. Ten microliters (10 µL) of the test compound (0.1 mM in acetonitrile/water, 1:1 v/v) was added to 990 µL of plasma to achieve 1 µM final concentration. The spiked plasma (200 µL) was added to the sample chamber, which is indicated by the red retainer ring (donor side). To the other side (receiver side), 350 µL of BupH phosphate buffered saline (pH 7.4) was added. A buffer-to-buffer assay was also performed to measure equilibrium across the membrane in the absence of plasma protein.
Propranolol was used as a positive control. All samples were prepared in triplicate. The RED device base plate was then sealed and placed in a shaking incubator set to maintain 37°C and 200 rpm for four hours.
After incubation, 100 µL of each sample was combined with an equal volume of either plasma or buffer, to create a similar matrix for all samples. Blank buffer was added to plasma samples, and vice versa. Samples from the incubation, along with the original compound-spiked plasma samples, were prepared for analysis in the same manner. Protein precipitation by addition of two parts of ice-cold acetonitrile to one part of reaction volume was carried out. To ensure complete protein precipitation samples were sealed and placed overnight at 4°C. The next morning samples were centrifuged at 3,600 rpm for 15 minutes. The supernatants (70 µL) were supplemented with an equal volume of internal standard solution (0.15 µM verapamil in water) and subjected to LC-MS/MS analysis.

[4] = Kinetic aqueous solubility in PBS pH 7.4; type: physicochemical; details: phosphate buffered saline (PBS), 25 °C, aqueous buffer, kinetic from dmso stock
Method: These promising compounds were evaluated in in vitro ADME assays (aqueous solubility, Caco-2 permeability, plasma protein binding, and hepatocyte stability) to determine their drug-like properties (Table 4).
Verapamil hydrochloride and tamoxifen were obtained from Sigma-Aldrich. All solvents were obtained from commercial sources and used without further purification. Hydrophilic PVDF 96-well filter plates ([…]), 2 mL 96-well assay block, and 96-well UV plates were purchased from Fisher Scientific.Test compound was prepared as a 10 mM stock solution in DMSO. Aqueous suspensions of test compound at 100 µM were prepared in assay buffers. The composition of phosphate buffered saline (PBS) is 0.1 M sodium phosphate, and 0.15 M sodium chloride, adjusted to pH 7.4. The suspensions were agitated at 200 rpm for 1 hour at 25 °C. The suspensions were transferred to a 0.45 µm hydrophilic PVDF 96-well filter plate mounted on a fresh 2 mL 96-well plate and were filtered by centrifugation at 3,000 rpm for 1 min. 150 µL of filtrates were transferred to 96-well UV plate for absorbance measurement. In order to determine the optimal wavelength for detection (λmax), the absorbance spectrum of the DMSO stock solution for each compound was recorded over a broad range of wavelengths (260–450 nm) using a UV/VIS plate reader (Molecular Devices Spectramax i3). To prepare calibration curves, a 1:1 serial dilution was performed on each compound starting at 100 µM to generate calibration solutions with concentrations ranging from […] to 100 µM. The UV absorbance of calibrants was measured at λmax for each compound. Concentration of each compound in the assay solution was calculated using the corresponding calibration curve. All assay measurements were performed in duplicate. […]

| AUC(0-t) [1] | Cmax [1] | bioavailability [1] | half-life [1] | half-life at 1 µM [2] | fraction unbound at 4 h, 1 µM [3] | solubility kinetic at 1 h [4] | Structure (SMILES) |
| --- | --- | --- | --- | --- | --- | --- | --- |
| 39800 ng·h/mL | 9610 ng/mL | 126% | 2 h | 5.97 h | 0.012 | 61 µM (≈ 26.7 µg/mL) | Cc1nc(N)c2c(-c3cc(F)c(NC(=O)[C@H](O)c4cccc(F)c4)cc3C)cn(C)c2n1 [Compound 66] |
| 40100 ng·h/mL | 8150 ng/mL | 129% | 2.2 h | 6.5 h | 0.007 | 58 µM (≈ 25.4 µg/mL) | Cc1nc(N)c2c(-c3ccc(NC(=O)[C@H](O)c4cccc(F)c4)c(F)c3C)cn(C)c2n1 [Compound 65] |
| 26000 ng·h/mL | 12500 ng/mL | 40% | 2.7 h | 1.13 h | 0.001 | 24 µM (≈ 10.4 µg/mL) | Cc1cc(F)cc([C@@H](O)C(=O)Nc2ccc(-c3cn(C)c4nc(C)nc(N)c34)c(C)c2)c1 [Compound 41] |
| 10900 ng·h/mL | 3020 ng/mL | 70% | 2.1 h | 9.27 h | 0.002 | 14 µM (≈ 6.16 µg/mL) | Cc1nc(N)c2c(-c3ccc(NC(=O)[C@H](O)c4cccc(Cl)c4)cc3F)cn(C)c2n1 [Compound 48] |

Second part, the compound before the results:

| Structure (SMILES) | AUC(0-t) [1] | Cmax [1] | bioavailability [1] | half-life [1] | half-life at 1 µM [2] | fraction unbound at 4 h, 1 µM [3] | solubility kinetic at 1 h [4] |
| --- | --- | --- | --- | --- | --- | --- | --- |
| Cc1nc(N)c2c(-c3ccc(NC(=O)[C@H](O)c4cc(F)cc(F)c4)cc3C)cn(C)c2n1 [Compound 38] | 28900 ng·h/mL | 8600 ng/mL | 94% | 2 h | 14.9 h | 0.008 | 19 µM (≈ 8.31 µg/mL) |
| Cc1nc(N)c2c(-c3ccc(NC(=O)[C@H](O)c4cccc(Cl)c4)cc3C)cn(C)c2n1 [Compound 28] | 65800 ng·h/mL | 14100 ng/mL | 84% | 2.4 h | 13 h | < 0.001 | 35 µM (≈ 15.3 µg/mL) |
| Cc1nc(N)c2c(-c3ccc(NC(=O)[C@H](O)c4cc(F)cc(C(F)(F)F)c4)cc3C)cn(C)c2n1 [Compound 39] | 86400 ng·h/mL | 14300 ng/mL | 78% | 2.9 h | 4.62 h | < 0.001 | 10 µM (≈ 4.87 µg/mL) |
| Cc1nc(N)c2c(-c3ccc(NC(=O)[C@H](O)c4cccc(F)c4)c(F)c3F)cn(C)c2n1 [Compound 70, (R)-N-(4-(4-amino-2,7-dimethyl-7H-pyrrolo[2,3-d]pyrimidin-5-yl)-2,3-difluorophenyl)-2-(3-fluorophenyl)-2-hydroxyacetamide] | 32300 ng·h/mL | 9720 ng/mL | 117% | 2 h | 6 h | 0.003 | 66 µM (≈ 29.1 µg/mL) |
| Cc1nc(N)c2c(-c3ccc(NC(=O)[C@H](O)c4cccc(C(F)(F)F)c4)cc3C)cn(C)c2n1 [Compound 26] | 126000 ng·h/mL | 17200 ng/mL | 82% | 3.5 h | 3.23 h | 0.001 | 19 µM (≈ 8.92 µg/mL) |
| Cc1nc(N)c2c(-c3ccc(NC(=O)[C@H](O)c4cccc(F)c4)cc3C)cn(C)c2n1 [Compound 24] | 37500 ng·h/mL | 13100 ng/mL | 77% | 2.1 h | 12.2 h | 0.006 | 76 µM (≈ 31.9 µg/mL) |

— article PMC9611727, “Optimization of a Novel Mandelamide-Derived Pyrrolopyrimidine Series of PERK Inhibitors” (Pharmaceutics, 2022)
